Values joined by “and” are separate entries in the source; they are usually repeats but may differ in a detail not shown here. Equal entries are not always repeated. Where two headings read alike, the source gives them in different places. Marks after values point to notes of the source that are not given here.
Assays:
TNF = type: cell-based, NMRI mice; conditions: spleen cells from non-infected in vivo etoposide-treated mice; mean ± SEM, four mice
spleen mononuclear cells = type: cell-based, NMRI mice; conditions: spleen cells from non-infected mice treated once a day for three days vs controls; FIG. 3
TNF-α [1] = experiment: Serum TNF-α in S. aureus infected mice (ELISA); type: in vivo, NMRI mice; conditions: six days after 1.4×10^7 CFU S. aureus; 12.5 mg/kg from three days prior; mean ± SEM, n = 6
Protocol: The levels of TNF.- were determined using sandwich enzyme-linked immunosorbent assays (ELISA) kit from R&D Systems Minneapolis, Minn.).

[2] = test system: granulocyte mediated inflammatory response; experiment: Olive oil induced inflammation (foot-pad swelling); type: in vivo; conditions: non-infected mice, n=6, 24 h after injection; no difference to controls
Protocol: Olive oil induces in vivo a strong granulocyte mediated but T cell independent inflammatory response. Inflammation was induced by injection of 30 μl olive oil (Apoteksbolaget AB, Göteborg, Sweden) intradermally in hind foot-pad. […] Foot-pad swelling was registered 24 h after injection using an Oditest spring caliper. The intensity of the olive oil induced inflammation was expressed (foot-pad thickness^24 h−foot-pad thickness^0 h)×10^−3 cm.

IL-6 [3] = type: cell-based, NMRI mice; conditions: 24 h supernatant
immunoglobulins = experiment: Serum total immunoglobulins (single radial immunodiffusion); type: in vivo, B10.QxDBA/1 female mice; conditions: serum at end of experiment, mean ± SEM
Protocol: Serum levels of immunoglobulins were measured by the single radial immunodiffusion technique (12). Antiserum was purchased from Dako (Dako A/S, Denmark) and mouse immunoglobulin standards were obtained from Sigma (Sigma Chemical Co., St. Louis, Mo.).

[4] = test system: collagen induced arthritis (CIA); experiment: Collagen induced arthritis, clinical evaluation; type: in vivo, B10.QxDBA/1 female mice
Protocol: B10.QxDBA/1 female mice were used in all experiments. They were aged from 11-16 weeks. In all experiments the mice were age-matched. The mice were kept in the animal facility at the University of Göteborg, under standard conditions of light and temperature and fed standard laboratory chow and water ad libitum.
Rat type II collagen (CII) from a chondrosarcoma was prepared by pepsin digestion and purification as described previously (9). The preparation of CII was dissolved at a concentration of 2 mg/ml in 0.1M acetic acid and stored at 4° C. Arthritis was induced by intradermal injection at the base of the tail with 50 μl of 100 μg CII emulsified with an equal volume of complete Freuid/s adjuvant (CFA; containing Mycobacterium butyricum, Difco, Detroit, Mich.). Mice were boosted with the same volume and concentrations of CII emulsified in incomplete Freund's adjuvant (IFA; Difco) 21 days after the first immunization.
Mice were primed and booster-immunized with CII. They were divided into three groups. […] The third group of mice were controls (n—17), receiving treatment with PBS. Prior to the start of the experiment, six mice in each group were bled for hematological analyses.
At regular time points the mice were examined concerning development of arthritis. Arthritis was defined as visible joint erythema and/or swelling of at least one joint. To evaluate the intensity of arthritis, a clinical scoring system of 0 to 3 points for each limb was used (1 point, mild swelling and/or erythema; 2 points, moderate swelling and erythema; 3 points, marked swelling and erythema). The arthritic index was constructed by adding the scores from all four limbs for each animal (11).

TNF-α [5] = type: cell-based; conditions: spleen cells of mice given 12.5 mg/kg 4 days a week for 4 weeks; mean ± SEM, 4 mice
IL-6 [6] = type: cell-based, NMRI mice; conditions: spleen cells from non-infected in vivo etoposide-treated mice; mean ± SEM, four mice
IL-6 [7] = experiment: Serum IL-6 in CII immunized mice (B9 bioassay); type: in vivo, B10.QxDBA/1 female mice; conditions: serum at end of experiment, mean ± SEM
Protocol: For quantification of serfu CII antibodies, 96-well plates (Nunc, Roskilde, Denmark) were coated overnight at 4° C. with 10 μg/ml of native CII. Standards and samples were diluted in 0.5% BSA-PBS. Biotinylated F(ab/)2 fragments of goat anti-mouse IgG (Jackson ImmunoResearch Laboratories, West Grove, Pa.) was used as secondary antibody. Development was performed using horseradish peroxidase 0.5 μg/ml and 2.5 mg of the enzyme substrate 2,2-azino-bis-(3-ethylbenzothiazoline sulfonic acid) (Sigma) per mal in citrate buffer (pH 4.2), containing 0.0075% H2O2. The absorbance was measured at 405 nm in a SPECTRAmax spectrophotometer (Molecular Devices, Calif.). IFN-γ levels in sera were quantified with an ELISA system previously described (13). Ninety-six well plates (Nunc) were coated with 2 μg/ml of rat anti-mouse IFN-γ mab (Pharmingen, San Diego, Calif.). Sera, recombinant IFN-γ (Genzyme, Cambridge, Mass.), biotinylated antibodies were all diluted in 0.05 M Tris pH 7.4+0.015 M NaCl. A biotinylated anti mouse IFN-γ antibody (2 μg/ml) (Pharmigen) was used as secondary antibody. After incubation with extravidin alkaline phosphatase 0.5 ?g/ml and alkaline phosphatase substrate 1 mg/ml (Sigma) the absorbance was measured at 405 nm. Interleukin 6 (IL-6) levels in serum and supernatants were measured by a bioassay using cell line B13.29, subclone B9, which is dependent on IL-6 for growth. […]

[8] = etoposide 1 μM, mean ± SEM, four mice
[9] = Etoposide-treated (from day 40)

For `COc1cc([C@@H]2c3cc4c(cc3[C@@H](O[C@@H]3O[C@@H]5CO[C@@H](C)O[C@H]5[C@H](O)[C@H]3O)[C@H]3COC(=O)[C@H]23)OCO4)cc(OC)c1O` [Etoposide], the “TNF, ConA stimulated” value (TNF) was 138 ± 17 pg/mL, the “TNF, TSST-1 stimulated” value (TNF) was 77 ± 22 pg/mL and the “Proliferative response, Con A stimulated” value (spleen mononuclear cells) was “not when stimulated with Con A”. For the same compound, the “Proliferative response, TSST-1 stimulated” value (spleen mononuclear cells) was “lower proliferative response”, the “Serum TNF-α” value (TNF-α [1]) was 30 ± 12 pg/mL and the “Foot-pad swelling, olive oil induced inflammation” value [2] was 128±131 ×10^−3 cm. For the same compound, the “IL-6, ConA stimulated” value (IL-6 [3]; [8]) was 825 ± 455 pg/mL, the “IL-6, TSST-1 stimulated” value (IL-6 [3]; [8]) was 45 ± 16b pg/ml and the “IL-6, ConA stimulated” value (IL-6 [3]; etoposide 10 μM) was <10^b pg/ml. The “IL-6, TSST-1 stimulated” value (IL-6 [3]; etoposide 10 μM) was <10^b pg/ml, the “IL-6, ConA stimulated” value (IL-6 [3]; etoposide 100 μM) was <10^b pg/ml and the “IL-6, TSST-1 stimulated” value (IL-6 [3]; etoposide 100 μM) was <10^b pg/ml. For the same compound, the Total immunoglobulin levels (immunoglobulins; Etoposide-pretreated) was 9.2±0.5 mg/ml and 9.2 ± 0.5a mg/ml, the Total immunoglobulin levels (immunoglobulins; [9]) was 8.5±0.7 mg/ml and 8.5 ± 0.8^a mg/ml and the “Arthritic score of diseased mice” value ([4]; Etoposide pretreated, Day 46) was 0. The “Arthritic score of diseased mice” value ([4]; Etoposide pretreated, Day 53) was 0, the “Arthritic score of diseased mice” value ([4]; Etoposide pretreated, Day 61) was 0 and the “Arthritic score of diseased mice” value ([4]; Etoposide treated (from day 40), Day 46, mean ± SEM) was 2.4 ± 0.2 (n = 5). For the same compound, the “Arthritic score of diseased mice” value ([4]; Etoposide treated (from day 40), Day 53, mean ± SEM) was 5.4 ± 1.3 (n = 5), the “Arthritic score of diseased mice” value ([4]; Etoposide treated (from day 40), Day 61, mean ± SEM) was 5.6 ± 1.3 (n = 5) and the “Mice with clinical signs of arthritis” value ([4]; Etoposide-pretreated: 12.5 mg/kg from two days prior to CII immunization, then 4 days weekly, almost nine weeks) was “none of 19”. For the same compound, the “Mice exhibiting arthritis at the end of the experiment” value ([4]; Etoposide-treated: 12.5 mg/kg 4 days per week from 40 days after immunization, 5 of 17, controls 53%) was 29%, the Changes in weight ([4]; between or within the groups (pretreated, treated, controls)) was “No significant changes in weight” and the “Reduction of frequency of disease” value ([4]; mice treated with etoposide at the onset of clinical arthritis) was 50%. The “TNF-α, Con A” value (TNF-α [5]) was 6 ± 0.5^a) pg/ml, the “TNF-α, TSST-1” value (TNF-α [5]) was 6 ± 0.4^a) pg/ml and the “IL-6, ConA stimulated” value (IL-6 [6]) was 455 ± 85^b pg/ml. The “IL-6, TSST-1 stimulated” value (IL-6 [6]) was 255 ± 66b pg/ml, the IL-6 (IL-6 [7]; Etoposide-pretreated) was 117 ± 21a pg/ml and the IL-6 (IL-6 [7]; [9]) was 179 ± 21^b pg/ml.

— patent US20030148963A1 (priority 2000, published 2003)
